{
  "source": "patent US11306306B1",
  "about": "“Selective degradation of proteins” (SyntheX, Inc., priority 2019, dated 2022)",
  "key": {"[1]": {"system": "aggressive adherent cancer cell lines (e.g. HeLa, A431, T47D, MCF7, MDA-MB-231)", "conditions": "several aggressive adherent cancer cell lines (e.g. HeLa, A431, T47D, MCF7, MDA-MB-231); cited from earlier work"}, "[2]": {"system": "COI1b bridged to plant protein (AXR) fused to a TetR DBD and an AD", "test": "Positive readout screen for bridging agents, death agent, 96 well plate growth (OD600), E3 ligase COI1b", "type": "cell-based, S. cerevisiae", "conditions": "duplicate wells, 30° C., final timepoint 84 hrs", "experimental": "In yet another example, cells expressing a heterologous E3 ligase, in this case COI1b, were assayed for survival to discover bridging agents that can bridge COI1b to the bait and lead to degradation, thereby enabling cell growth (as shown in FIG. 11A). S. cerevisiae cells were modified to minimize drug efflux by deletion of drug efflux pumps and transcription factors encoding for their expression as previously described (Chinen, 2011). The target used was a plant protein (AXR) that is ubiquitinated and degraded in response to Jasmonate-isoleucine fused to a TetR DBD and an AD. Cells containing the E3 ligases and the death agents were mated to cells containing the target. The mated cells were then aliquoted into a 96 well plate at a starting OD600=0.05. Various compounds were tested in duplicate wells at a concentration gradient down from 100 uM. […] Plates were incubated at 30° C. with shaking and continuously monitored for growth using OD600 in a Cytation 1 instrument."}, "[3]": {"system": "TIR1 bridged to plant protein (AXR) fused to a TetR DBD and an AD", "test": "Positive readout high throughput screen for bridging agents, death agent, 96 well plate growth (OD600), E3 ligase TIR1", "type": "cell-based, Saccharomyces cerevisiae", "conditions": "10 uM, quadruplicate wells, 30° C., final timepoint 48 hrs", "experimental": "In another example, cells expressing a heterologous E3 ligase, in this case TIR1, were assayed for survival to discover bridging agents that can bridge TIR1 to the bait and lead to degradation, thereby enabling cell growth (schematic shown in FIG. 10A). The target was a plant protein (AXR) that is ubiquitinated and degraded in response to Indol Acetic Acid fused to a TetR DBD and an AD. Cells containing the E3 ligases and the death agent were mated to cells containing the target. The mated cells were then aliquoted into a 96 well plate at a starting OD600=0.05. In this example, various compounds were used in quadruplicate wells at a concentration of 10 uM, and plated cells starting at OD600=0.05 (with the border wells on each side kept as negative controls). Plates were incubated at 30° C. with shaking and continuously monitored for growth using OD600 in a Cytation 1 instrument."}},
  "data": [
    {"molecule": "Gymnopeptide A [GymA]", "values": [
      {"measurement": "IC50 values", "setting": "[1]", "result": "low nanomolar range"}
    ]},
    {"molecule": "Gymnopeptide B [GymB]", "values": [
      {"measurement": "IC50 values", "setting": "[1]", "result": "low nanomolar range"}
    ]},
    {"molecule": "CC[C@H]1C=C(C(=O)N[C@@]2(C(=O)O)C[C@@H]2CC)[C@H]2CCC(=O)[C@H]2C1", "note": "[coronatine]", "values": [
      {"measurement": "cell growth (OD600): bridging COI1b to the bait, leading to degradation", "setting": "[2]; 50 uM (wells G8/9)", "result": "exhibited cell growth"},
      {"measurement": "cell growth (OD600): bridging COI1b to the bait, leading to degradation", "setting": "[2]; 75 uM (wells F8/9)", "result": "exhibited cell growth"},
      {"measurement": "cell growth (OD600): bridging COI1b to the bait, leading to degradation", "setting": "[2]; 100 uM (wells E8/9)", "result": "exhibited cell growth"}
    ]},
    {"molecule": "O=C(O)Cc1ccccc1", "note": "[PAA]", "values": [
      {"measurement": "cell growth (OD600): bridging TIR1 to the bait, leading to degradation", "setting": "[3]", "result": "functional bridging agents"}
    ]}
  ]
}
